According to US20190083521A1, “COMBINATION THERAPY FOR TREATING CANCER” (Epizyme, Inc., priority 2014, published 2019):

Key:
[1] = system: RS4-11 (MLL-AF4) cells; test: Example 7 retest: EPZ-5676 pre-treatment, second compound 72 h, Cell Titer Glo, growth inhibition; assay type: cell-based; parameters: GI100: unit not given here; conditions: RS4-11 (MLL-AF4), Ras mutation status: None known, second compound, 72 h
Description: (§1) Cells were then treated with a second compound for 72 hours. After this time, plates were developed for endpoint analysis using Cell Titer Glo to measure ATP content, which is used as an indicator of cell viability.
(§2) “N/D” means the GI100 of the second compound could not be determined for both conditions and “-” means not tested.
(§3) Growth Inhibition (GI) as a measure of cell viability: The cell viability of vehicle was measured at the time of dosing the second agent (T0) and after seventy-two hours (T72). […] A GI 200% represents complete death of all cells in the culture well. Compounds reaching an activity plateau of GI 200% are considered cytotoxic. GI is calculated by applying the following test and equation: […]

[2] = system: ML-2 (MLL-AF6) cells; test: as above; assay type: cell-based; parameters: GI100: unit not given here; conditions: ML-2 (MLL-AF6), KRAS A146T (het)
Description: as §1, §2, §3

[3] = system: THP-1 (MLL-AF9) cells; test: as above; assay type: cell-based; parameters: GI100: unit not given here; conditions: NRAS G12D
Description: Cells were split using EPZ-5676 or DMSO containing growth media and further incubated for an additional 3-day pre-treatment time. Cells were finally seeded in growth media containing EPZ-5676 or DMSO in 96-well plates. Cells were then treated with a second compound for 72 hours. After this time, plates were developed for endpoint analysis using Cell Titer Glo to measure ATP content, which is used as an indicator of cell viability.
as §2
Growth Inhibition (GI) as a measure of cell viability: The cell viability of vehicle was measured at the time of dosing the second agent (T0) and after seventy-two hours (T72). A GI reading of 0% represents no growth inhibition—cells treated with test compound as compared to T72 vehicle signals were measured. […] A GI 200% represents complete death of all cells in the culture well. Compounds reaching an activity plateau of GI 200% are considered cytotoxic. GI is calculated by applying the following test and equation: […]

[4] = system: MOLM-13 (MLL-AF9) cells; test: as above; assay type: cell-based, human; parameters: GI100: unit not given here; conditions: MOLM-13 (MLL-AF9)
Description: as §1, §2, §3

[5] = system: SKM-1 (non-MLLr) cells; test: as above; assay type: cell-based, human; parameters: GI100: unit not given here; conditions: SKM-1 (non-MLLr)
Description: as §1, §2, §3

[6] = system: OCI-AML-4 (MLL-ENL) cells; test: as above; assay type: cell-based; conditions: OCI-AML-4 (MLL-ENL)
Description: as §1, §2, §3

[7] = system: SKM-1 cells; test: Example 6 combination screen: 300 nM EPZ-5676 pre-treatment, second compound 72 h, ATPLite, IC50 shift; assay type: cell-based, human; conditions: SKM-1 cells; 300 nM EPZ-5676 pre-treatment (4 + 3 days) vs DMSO, then 2nd compound 72 h; ATPLite; IC50 shift of 2nd compound
Description: (§4) Cells were then equilibrated in incubators for 24 hours before treatment with a second compound. Treated assay plates were incubated with a second compound for 72 hours. After this time, plates were developed for endpoint analysis using ATPLite to measure ATP content, which is used as an indicator of cell viability.
(§5) “N/D” means that IC50 of the second compound could not be determined for both conditions.

[8] = system: MOLM-13 cells; test: as above; assay type: cell-based, human; conditions: 300 nM EPZ-5676 pre-treatment (4 + 3 days) vs DMSO, then 2nd compound 72 h, IC50 shift of 2nd compound
Description: as §4, §5

[9] = system: MV4-11 (MLL-AF4) cells; test: Combination proliferation assay with Compound A2 (CellTiter-Glo, Chou-Talalay CI); assay type: cell-based, human; conditions: MV4-11 (MLL-AF4); 7 Day Cotreatment Model
Description: The acute myelogenous leukemia cell lines MV4-11 (MLL-AF4) and MOLM-13 (MLL-AF9) were obtained from American Type Culture Collection (ATCC; Rockville, Md.) and Deutsche Sammlung von Mikroorganismen and Zellkulturen (DSMZ; Braunschweig, Germany) respectively.
Studies were performed using MLL-rearranged cell lines in vitro to evaluate the anti-proliferative effect of a combination of two agents together on cell growth. Initial proliferation studies were performed to determine the IC50 of a given compound in each cell line. The cell counts were measured by ATP quantitation using the Promega Cell Titer Glo kit and luminescence values corresponded to the amount of ATP in a given well.
Compounds were evaluated for synergy in the co-treatment phase by testing the compounds in a concentration range which was bracketed around their IC50 values. The compounds were plated to a 96 well plate in a matrix format (FIG. 3) which includes increasing concentrations of each drug in the combination in a constant ratio, in addition to the effect of each compound alone in the study. Cells were seeded and grown in the log-linear phase for 3 or 7 days in the co-treatment phase. Minimum inhibition (DMSO alone) controls were used in each plate to calculate fraction affected (Fa) of a test well. DMSO concentration was kept at 0.1% v/v.
The drug combination analysis was performed utilizing the Chou-Talalay method Synergy was determined using the software package Calcusyn by Biosoft. The combination index (CI) is a quantitative term used to describe the level of synergy or antagonism in a given test system. A combination index less than one indicates synergy, and a CI greater than one indicates antagonism. Further, strong synergism is achieved when the CI value falls below 0.3.
The HP-D300 digital dispenser (Tecan) was used to dispense compounds in a combinatorial matrix. […] Cell viability was measured via ATP content using CellTiter-Glo® (Promega).
Viability was determined using CellTiter-Glo® (Promega).
Proliferation studies were performed using MOLM-13, MV4-11 and SKM-1 cell lines in vitro to evaluate the cancer cell killing effect of a combination of two agents together on cell growth. Initial proliferation studies were performed to determine the IC50 values of a given compound in each cell line. The cell counts were measured by ATP quantitation using the Promega Cell Titer Glo kit and luminescence values correspond to the amount of ATP in a given well.
These studies were performed to evaluate both the combinatorial effect of compounds on cell killing and the durability of the effect by washing out one of the agents.
Compounds evaluated for synergy in the co-treatment phase were tested in a range which was bracketed around the IC50's. The compounds were plated to a 96 well plate in a matrix format which includes increasing concentrations of each drug in the combination in a constant ratio, in addition to the effect of each compound alone in the study. Cells were seeded and grown in the log-linear phase for 3 or 7 days in the cotreatment phase. Maximum and minimum inhibition (DMSO alone) controls were used in each plate to calculate fraction affected (Fa) of a test well. DMSO concentration was kept at 0.1% v/v. The drug combination analysis was performed utilizing the Chou-Talalay method. Synergy was determined using the software package Calcusyn by Biosoft. The combination index (CI) is the term used to describe the level of synergy or antagonism in a given test system. A combination index less than one indicates synergy, and a CI greater than one indicates antagonism.
The drug combination analysis was performed using the Chou-Talalay method. Graphs representing values of combination index (CI) versus Fractional effect (Fa) known as Fa-CI plots were generated and synergy was evaluated. Drug synergy was statistically defined by CI values less than 1, antagonism by CI>1 and additive effect by CI equal to 1.

[10] = 300 nM EPZ-5676 pre-treatment vs DMSO
[11] = KRAS K117N (homo), second compound, 72 h
[12] = NRAS Q61R (het), second compound, 72 h

Cn1cnc2c(F)c(Nc3ccc(Br)cc3F)c(C(=O)NOCCO)cc21 [Binimetinib (MEK-162), Binimetinib]
GI50 ([1]; Homo sapiens): > 10000 nM
GI100 [1]: >10
Result (combination with EPZ-5676) [2]: Synergy (considered synergistic if the GI100 (Growth inhibition 100) value of the second compound decreased by 2-fold or more when EPZ-5676 was added as compared to the DMSO control)
GI50 ([2]; second compound, 72 h): 30 nM
GI100 ([2]; second compound, 72 h): 0.50
GI50 [3]: 90 nM
GI100 [3]: >10
GI50 ([4]; Homo sapiens, Ras mutation status: None known, second compound, 72 h): 720 nM
Combination result with EPZ-5676, Retest ([4]; 150 nM EPZ-5676 pre-treatment vs DMSO): Synergy (considered synergistic if the GI100 (Growth inhibition 100) value of the second compound decreased by 2-fold or more when EPZ-5676 was added as compared to the DMSO control)
Result (combination with EPZ-5676) ([4]; Ras mutation status: None known): Synergy (considered synergistic if the GI100 (Growth inhibition 100) value of the second compound decreased by 2-fold or more when EPZ-5676 was added as compared to the DMSO control)
GI100 ([4]; Ras mutation status: None known, second compound, 72 h): 3.96
Combination result with EPZ-5676, Retest [5, 10]: Synergy (considered synergistic if the GI100 (Growth inhibition 100) value of the second compound decreased by 2-fold or more when EPZ-5676 was added as compared to the DMSO control)
Result (combination with EPZ-5676) ([5]; KRAS K117N (homo)): Synergy (considered synergistic if the GI100 (Growth inhibition 100) value of the second compound decreased by 2-fold or more when EPZ-5676 was added as compared to the DMSO control)
GI50 [5, 11]: 10 nM
GI100 [5, 11]: 0.07
Combination result with EPZ-5676, Retest [6, 10]: Synergy (considered synergistic if the GI100 (Growth inhibition 100) value of the second compound decreased by 2-fold or more when EPZ-5676 was added as compared to the DMSO control)
Result (combination with EPZ-5676) ([6]; NRAS Q61R (het)): Synergy (considered synergistic if the GI100 (Growth inhibition 100) value of the second compound decreased by 2-fold or more when EPZ-5676 was added as compared to the DMSO control)
GI50 [6, 12]: 59 nM
GI100 [6, 12]: 1.504

Cc1sc2c(c1C)C(c1ccc(Cl)cc1)=N[C@@H](CC(N)=O)c1nnc(C)n1-2 [CPI-203]
Summary of Combination Studies: SKM-1 [7]: Synergy (considered synergistic if the IC50 value of the second compound decreased by 2-fold or more when EPZ-5676 was added as compared to the DMSO control)
Summary of Combination Studies: MOLM-13 [8]: Synergy (considered synergistic if the IC50 value of the second compound decreased by 2-fold or more when EPZ-5676 was added as compared to the DMSO control)

COc1ccc(-c2ccc3c(N4CCOCC4)nc(N4C[C@@H](C)O[C@@H](C)C4)nc3n2)cc1CO [KU 0063794]
Summary of Combination Studies: SKM-1 [7]: Synergy (considered synergistic if the IC50 value of the second compound decreased by 2-fold or more when EPZ-5676 was added as compared to the DMSO control)
Summary of Combination Studies: MOLM-13 [8]: Synergy (considered synergistic if the IC50 value of the second compound decreased by 2-fold or more when EPZ-5676 was added as compared to the DMSO control)

O=C(c1cn(Cc2cncn2Cc2ccc(Br)cc2)cc1-c1cccc2ccccc12)N1CCOCC1 [LB42708]
Summary of Combination Studies: SKM-1 [7]: Synergy (considered synergistic if the IC50 value of the second compound decreased by 2-fold or more when EPZ-5676 was added as compared to the DMSO control)
Summary of Combination Studies: MOLM-13 [8]: Synergy (considered synergistic if the IC50 value of the second compound decreased by 2-fold or more when EPZ-5676 was added as compared to the DMSO control)

O=C(Nc1ccccc1-c1cn2c(CN3CCNCC3)csc2n1)c1cnc2ccccc2n1 [SRT-1720]
Combination effect with Compound A2 (Table 4) [9]: Synergy (Drug synergy was statistically defined by CI values less than 1)
Summary of Combination Studies: MOLM-13 [8]: Synergy (considered synergistic if the IC50 value of the second compound decreased by 2-fold or more when EPZ-5676 was added as compared to the DMSO control)

COc1cc2c(NC3CCN(C4CCCCC4)CC3)nc(N3CCCN(C(C)C)CC3)nc2cc1OCCCN1CCCCC1 [UNC 0646]
Summary of Combination Studies: SKM-1 [7]: Synergy (considered synergistic if the IC50 value of the second compound decreased by 2-fold or more when EPZ-5676 was added as compared to the DMSO control)
Summary of Combination Studies: MOLM-13 [8]: Synergy (considered synergistic if the IC50 value of the second compound decreased by 2-fold or more when EPZ-5676 was added as compared to the DMSO control)
